# In patent US12496304B2, “Selective glucocorticoid receptor modifiers for treating impaired skin wound healing” (AKRIBES BIOMEDICAL GMBH, priority 2019, dated 2025):
# Read-outs that look alike come from different tables or passages of the source.
# Key:
# IL1β = experiment: mRNA expression in fibroblast cultures (qRT-PCR): IL-1β; assay type: cell-based, human
# Experimental: (§1) Cells were seeded into 24-well plates and incubated with compounds in the presence or absence of wound exudates for 72 hours. Total RNA was isolated using the RNeasy Mini Kit (QIAGEN #74106) according to the manufacturer's protocol. RNA integrity and concentration for each sample was confirmed and measured with the Qubit fluorometer. Each RNA sample was then diluted to 2 ng/μl in nuclease-free doubly distilled water.
# 20 ng of total RNA were reverse-transcribed into cDNA and immediately subjected to PCR amplification using the SuperScript Ill Platinum One-Step Quantitative RT-PCR System with ROX (Invitrogen #11745). qRT-PCR amplifications were performed in 20 μl reactions containing 9 μl 2× Reaction Mix with ROX, 0.4 μl SuperScript III RT/Platinum Taq Mix and 1 μl primer (final: 900 nM, Taqman Gene Expression Assay, Applied Biosystems) […]
# (§2) The house keeping gene elongation factor 1a (EF1a) was used as a reference gene. Normalized expression was calculated using the comparative Ct (or ΔCt) method, and fold changes were derived from the 2-ΔΔCt values for each gene. Graphs were prepared using relative Ct values that were calculated by subtracting the EF1a Ct values from the corresponding Ct values for the gene being measured.
# glucocorticoid receptor [1] = target: T1, glucocorticoid receptor (Homo sapiens, UniProt P04150); details: read-out: EC50, potency for glucocorticoid receptor activation; cited from earlier work
# T1 sequence (P04150 1-777): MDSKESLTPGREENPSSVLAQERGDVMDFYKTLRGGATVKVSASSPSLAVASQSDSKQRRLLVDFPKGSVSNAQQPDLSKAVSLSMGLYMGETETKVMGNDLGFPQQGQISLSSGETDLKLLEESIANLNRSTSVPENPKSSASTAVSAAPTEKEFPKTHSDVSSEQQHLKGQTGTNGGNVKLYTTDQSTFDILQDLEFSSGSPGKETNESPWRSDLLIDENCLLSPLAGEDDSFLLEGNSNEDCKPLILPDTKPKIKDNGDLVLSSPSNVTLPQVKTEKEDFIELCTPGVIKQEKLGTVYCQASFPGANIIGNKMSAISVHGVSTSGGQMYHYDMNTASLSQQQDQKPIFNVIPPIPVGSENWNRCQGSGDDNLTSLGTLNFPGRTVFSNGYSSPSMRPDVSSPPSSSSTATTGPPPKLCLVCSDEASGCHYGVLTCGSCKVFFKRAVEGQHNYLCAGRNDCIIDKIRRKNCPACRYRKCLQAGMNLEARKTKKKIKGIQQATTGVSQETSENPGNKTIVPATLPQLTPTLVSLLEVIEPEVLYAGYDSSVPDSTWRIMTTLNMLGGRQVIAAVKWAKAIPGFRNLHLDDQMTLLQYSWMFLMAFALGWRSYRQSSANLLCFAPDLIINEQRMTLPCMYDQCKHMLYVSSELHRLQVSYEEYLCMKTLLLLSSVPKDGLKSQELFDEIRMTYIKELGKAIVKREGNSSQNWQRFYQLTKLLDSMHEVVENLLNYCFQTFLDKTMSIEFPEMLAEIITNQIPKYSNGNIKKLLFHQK
# IL-8 [2] = experiment: Primary human monocyte cytokine secretion assay (spontaneous IL-8); assay type: cell-based; details: 16 hours (FIG. 16B)
# Experimental: Primary human monocytes were prepared from peripheral blood mononuclear cells (PBMC). PBMC were isolated from buffy coats obtained from the Red Cross, Vienna, using LymphoPrep (Technoclone). 30 ml of buffy concentrate was diluted 1:2 with PBS, gently underlayered with 15 ml Lymphoprep in a 50 ml Falcon tube and centrifuged for 25 minutes at 1800 rpm at 21° C. The interphase was carefully transferred to a new Falcon tube and filled up to 50 ml with ice cold PBS. After another centrifugation step (10 minutes, 1200 rpm, 4° C.), the cell pellet was washed 3 times with PBS, resuspended in RPMI medium containing 20% FCS and 10% DMSO and frozen in liquid nitrogen. Monocytes were generated from frozen aliquots using positive selection with the CD14 Beads-Kit (Miltenyi) on an autoMACS-Sorter (Miltenyi) according to the manufacturer's instructions.
# Cells were seeded at 8×10^5/ml in 50 μl/well of a 384-well plate and combined cells with graded concentrations of test compounds. After 16 hours, the supernatants were transferred to fresh plates and frozen at −20° C. for IL-8 analysis, using a commercial ELISA kit.
# Collagen 3a = experiment: mRNA expression in fibroblast cultures (qRT-PCR): collagen 3; assay type: cell-based, human; details: WE-1, graded concentrations, 72-hour incubation (FIG. 7A)
# Experimental: as §1
# (§3) 20 ng of total RNA were reverse-transcribed into cDNA and immediately subjected to PCR amplification using the SuperScript Ill Platinum One-Step Quantitative RT-PCR System with ROX (Invitrogen #11745). qRT-PCR amplifications were performed in 20 μl reactions containing 9 μl 2× Reaction Mix with ROX, 0.4 μl SuperScript III RT/Platinum Taq Mix and 1 μl primer (final: 900 nM, Taqman Gene Expression Assay, Applied Biosystems)
# (§4) The program included 30 minutes of reverse transcription at 48° C., an initial denaturation for 5 minutes at 95° C. followed by 40 cycles of denaturation at 95° C. for 15 seconds and annealing at 60° C. for 60 seconds. Reactions were set up in 96-well format PCR plates (Peqlab #732-2879) and carried out in a Mx3005P Real-Time PCR Detection System (Stratagene).
# (§5) TaqMan Gene Expression Assays (Applied Biosystems) were used, which include preoptimized probe and primer sets specific for the genes being validated. The sequences and ID numbers are listed below:
# as §2
# IL-8 [3] = experiment: U937 cell stimulation assay (LPS-induced IL-8); assay type: cell-based, human; details: LPS 100 ng/ml, 16 hours (FIG. 16A)
# Experimental: The human monocytic cell line U937 (ATCC CRL 1593) was routinely grown in RPMI_1640 supplemented by 10% FCS and 2 mM glutamine, and 100 U/ml penicillin/100 μg/ml streptomycin. Cells were seeded at 4×10^5/ml in 50 μl/well of a 384-well plate and combined cells with graded concentrations of test compounds and LPS at 100 ng/ml. After 16 hours, the supernatants were transferred to fresh plates and frozen at −20° C. for IL-8 analysis, using a commercial ELISA kit.
# Collagen 1a = experiment: mRNA expression in fibroblast cultures (qRT-PCR): collagen 1; assay type: cell-based, human; details: WE-1, graded concentrations, 72-hour incubation (FIG. 6A)
# Experimental: as §1, §3, §4, §5, §2
# glucocorticoid receptor [4] = target: T1, glucocorticoid receptor; details: 45 minutes at 37° C.
compound,measurement,setting,value
Cc1ccc2c(NC[C@](O)(CC(C)(C)c3cc(F)cc4c3OCC4)C(F)(F)F)cccc2n1 [Mapracorat],IL-1β mRNA expression,"IL1β; WE-1, graded concentrations, 72-hour incubation (FIG. 8A)",dose-dependently inhibited IL-1β mRNA expression in the presence of WE
same,IL-1β mRNA expression,"IL1β; medium in the absence of WE, 72-hour incubation (FIG. 8B)",no IL-1β induction in medium
same,EC50,glucocorticoid receptor [1],1.9 nM
same,spontaneous IL-8 secretion in human monocytes,IL-8 [2],inhibited both LPS-induced and spontaneous IL-8 secretion
same,collagen 3 mRNA expression,Collagen 3a,at all three concentrations enhanced collagen 3 mRNA expression in the presence of WE
same,LPS-induced IL-8 secretion in U937 cells,IL-8 [3],inhibited both LPS-induced and spontaneous IL-8 secretion
same,collagen 1 mRNA expression,Collagen 1a,dose-dependently enhanced collagen 1 mRNA expression in the presence of WE
same,localization of the glucocorticoid receptor,glucocorticoid receptor [4]; 0.1 nM,N/C
same,localization of the glucocorticoid receptor,glucocorticoid receptor [4]; 1 nM,N
same,localization of the glucocorticoid receptor,glucocorticoid receptor [4]; 100 nM,N
same,localization of the glucocorticoid receptor,glucocorticoid receptor [4]; 10 nm,N
